Source: US12629347B2, “Compounds and dosage regimen for use in the prevention or treatment of chronic inflammatory and/or autoimmune diseases” (Immunic AG, priority 2017, dated 2026)
Where two headings read alike, the source gives them in different places. Marks after values point to notes of the source that are not given here. One block for each compound: values may come before it.

Legend:
[1] = Three week phase I trial with dose-in phase (25 mg then 50 mg): urate in 24 h urine; type: in vivo, human; settings: all 20 subjects incl. placebo
Method: 8 individuals were treated with 25 mg for 7 days, followed by 14 day treatment with a dose of 50 mg once daily. Another 8 volunteers were treated with placebo (dose 1=0 mg) for 7 days followed by treatment of 50 mg IMU-838. 4 volunteers received placebo for the whole time.
Based on the observations on a) dose dependent effect of IMU-838 on urate levels in the urine and formation of small crystals (example 1) and b) the time course and dose dependence of urate level changes in single volunteers (example 2) a new therapeutic treatment scheme was invented. In this example a treatment scheme was applied to a three week clinical phase I trial consisting of two different doses “dose 1” of 25 mg daily dose and “dose 2” of 50 mg daily dose. 8 subjects received a lower dose 1 for 7 days followed by the higher (double) dose 2 for further 14 days, whereas another 8 subjects received placebo for 7 days then followed by treatment with the 50 mg high dose (dose 2). 4 subjects received placebo during the foll three week period. During this study urine was collected at four different timepoints (pre-dose, day 1, day 7, day 14) and analyzed for urate/uric acid levels.

[2] = Phase I SAD study: uric acid in 24 h collected urine; type: in vivo, human; settings: for Uric acid, Pre dose (−24 h to 0): 24 h urine; for Increase of mean uric acid levels: post dose vs pre dose
Method: (§1) During the IMU-838 (vidofludimus-calcium) phase I SAD study (Immunic study number P1-IMU-838-SAD), urine was collected from all volunteers and tested with respect to the amount of clinical relevant anions, including urate and oxalate. In addition, formation of anion crystals in the urine was measured. In this study, IMU-838 was tested as a single dose applied to male healthy volunteers. Five different dose regimens were tested which covered four different doses of IMU-838: 10 mg, 20 mg, 30 mg and 40 mg of IMU-838 in fastened patients, which means no food intake 10 hours prior to the treatment and two hours after dose application. In addition, one dose group received 10 mg of IMU-838 in fed state which means that the 10 mg dose was applied after a high-fat breakfast. Each group consisted of six healthy volunteers, except for the 40 mg dose group with only five volunteers.
The pre-dose value was derived from urine collected 24 hours before application of IMU-838 tablets. The post dose value was obtained by collecting 24 hours urine starting 4 hours after intake of IMU-838.

[3] = Phase I SAD study (P1-IMU-838-SAD): plasma concentration after single dose; type: in vivo; settings: human, oral, read-out: maximum plasma concentrations (cmax)
[4] = Phase I SAD study: RBC in urine / hematuria; type: in vivo, human
Method: as §1
Treatment of humans with IMU-838 leads to dose dependent increase of urate excretion through the urine and thus to formation of urate (micro)crystals.

[5] = Phase I MAD trial (P1-IMU-838-MAD): uric acid in 24 h urine, 14 days once daily without predosing; type: in vivo, human
Method: Each group consists of 16 patients with 12 individuals receiving active drug IMU-838 (either 30 or 40 mg per day) and 4 patients receiving placebo.
In a randomized, placebo controlled double blind clinical Phase I MAD trial (Immunic study number P1-IMU-838-MAD), IMU-838 was applied to healthy volunteers for 14 days in order to test the effects of IMU-838 on safety and biomarkers for repeated once daily doses over 14 days. In the first part of this study, 12 individuals were treated with 30 mg of IMU-838, 12 individuals were treated with 40 mg of IMU-838 and 8 individuals received placebo (4 individuals in each group). For all 32 individuals, urate levels in the urine was quantified in three periods of 24 hour urine collection. The first collection was at pre-dose (day 0). The second urine collection started four hours after intake of the first dose (day 1, 4 hours to 28 hours). The third collection of urine was performed on the last day of the 14 day treatment cycle (day 14, 4 hours to 28 hours). The amounts of uric acid at those timepoints is depicted in FIG. 2a.

[6] = Clinical study comparing treatment with and without pre-treatment phase: uric acid excreted in urine; type: in vivo, human; settings: for Change in Median uric acid excreted in urine: Day 0 (first day of 50 mg dose), n 8
Source text: A double-blind clinical study, Placebo controlled, Ascending Dose has been conducted. This study has been reported (Study Number P1-IMU-838-MAD).
Uric acid excretion in urine could be however modified with a pre-treatment period.

[7] = Clinical observations with vidofludimus: blood uric acid, urine RBC, hematuria; type: in vivo, human
Method: A novel class of compounds with an inhibitory effect on DHODH, in particular human DHODH, was found and described in EP 2 093 214 A1. Vidofludimus (CAS 717824-30-1) is the free acid of a compound according to formula (I) and is tested in clinical trials in human subjects. […] Higher dose means e.g. doses higher than […] once daily application of vidofludimus in humans. However, doses of compounds of formula (I), e.g. higher than 200 μmol once daily application, sometimes lead to undesirable side effects such as an increased risk of increased red blood cell count (RBC) in the urine (hematuria).
At high vidofludimus doses (i.e. ≥70 mg/day or single doses of ≥210 mg) a decrease in blood uric acid levels and an increase in urine red blood cell count were observed, in very rare cases, presenting as symptomatic hematuria during the first 7 days of treatment. Laboratory findings were consistent with post-renal events and de novo precipitates in the urinary tract.
A side effect that may also be termed adverse effect is a harmful and undesired effect resulting from medication during its use in the prevention and/or treatment of a patient with the inventive compound (I).

[8] = high doses, ≥70 mg/day or single doses of ≥210 mg

mean 24 hours urinary urate level ([1]; after 1 day of treatment (4-28 hours)): 789.5 mg
mean increase in 24 hours urinary urate levels ([1]; after 1 day of treatment (4-28 hours), dose 1 25 mg): 15%
mean 24 hours urinary urate level ([1]; after three weeks (day 21)): 815.9 mg
overall increase of mean urinary urate level ([1]; day 21 vs first day of dose 2): 4%
mean 24 hours urinary urate level ([1]; first day of dose 2 50 mg (day 7 of the full trial)): 789.7 mg
mean 24 hours urinary urate level ([1]; pre-dose baseline): 684.1 mg
Uric acid, Pre dose (−24 h to 0) ([2]; 10 mg fasted group, N = 6, baseline before dosing): 520 mg/24 h
Uric acid, Pre dose (−24 h to 0) ([2]; 40 mg fasted group, N = 4, baseline before dosing): 489^a mg/24 h
Uric acid, Post dose (4 to 28 h) ([2]; single dose 10 mg fasted, N = 6, 24 h urine): 637 mg/24 h
Increase of mean uric acid levels ([2]; single dose 10 mg fasted): 117 mg/24 h
Uric acid, Post dose (4 to 28 h) ([2]; single dose 40 mg fasted, N = 5, 24 h urine): 734 mg/24 h
Increase of mean uric acid levels ([2]; single dose 40 mg fasted): 245 mg/24 h
Cmax ([3]; single dose 10 mg IMU-838, fasted male healthy volunteers): 1.58 µg/mL
Cmax ([3]; male, single dose 40 mg IMU-838, fasted): 7.86 µg/mL
RBC (red blood cell count) in urine ([4]; single doses 10 to 40 mg): not leading to increase of RBC
increase of uric acid compared with pre-treatment ([5]; 30 mg and 40 mg groups, after the full 14 days treatment): around 30%
amount of uric acid in 24 hour urine ([5]; 30 mg group, pre-dose (day 0) baseline): 605.9 mg
increase of uric acid in urine ([5]; 30 mg once daily, after 14 days vs pre-dose): 29%
increase of uric acid in urine at day one ([5]; 30 mg once daily, day 1 (4 to 28 hours)): no increase
amount of uric acid in 24 hour urine ([5]; 30 mg once daily, day 14): 686.2 mg
amount of uric acid in 24 hour urine ([5]; 40 mg group, pre-dose (day 0) baseline): 541.4 mg
amount of uric acid in 24 hour urine ([5]; 40 mg once daily, day 14): 699.3 mg
amount of uric acid in 24 hour urine ([5]; 40 mg once daily, first day (4-28 hours after intake)): 620.3 mg
increase of uric acid in urine ([5]; 40 mg once daily, first day (4-28 hours) vs pre-dose): 15.2%
urinary excretion of uric acid after treatment initiation ([6]; P1-IMU-838-MAD dose groups): increased in all but the 30 mg group
Change in Median uric acid excreted in urine ([6]; Placebo pre-treatment then 50 mg): 86.5 mg/24 h
Change in Median uric acid excreted in urine ([6]; Pre-dosing 25 mg for 6 days then 50 mg): 49.5 mg/24 h
Compound: COc1cccc(-c2ccc(NC(=O)C3=C(C(=O)O)CCC3)c(F)c2)c1 [IMU-838]
dose limiting side effects like hematuria ([4]; doses up to 40 mg of IMU-838): no dose limiting side effects like hematuria occurred

symptomatic hematuria ([7]; daily doses of 35 mg): no cases of symptomatic hematuria
blood uric acid levels [7, 8]: decrease
urine red blood cell count [7, 8]: increase
Compound: COc1cccc(-c2ccc(NC(=O)C3=C(C(=O)O)CCC3)c(F)c2)c1 [vidofludimus]
